Assay results from BindingDB's records for doi:10.1021/jm00126a009 (Northeastern University, 1989).

Tests used:
[1] = Compound was evaluated for the ability to displace [3H]spiperone at Dopamine receptor D2 in porcine anterior pituitary gland as low affinity state
[2] = Compound was evaluated for the ability to displace [3H]spiperone at Dopamine receptor D2 in porcine anterior pituitary gland as high affinity state
[3] = Compound was evaluated for the ability to displace [3H]spiperone at Dopamine receptor D2 in porcine anterior pituitary gland as low affinity state; remark: listed apart in the source
[4] = Compound was evaluated for the ability to displace [3H]spiperone at dopamine receptor in porcine anterior pituitary gland as high affinity state

Structure (SMILES)	Kd [1]	Kd [2]	Kd [3]	Kd [4]
CN1CCc2cc(Br)cc3c2[C@H]1Cc1ccc(O)c(O)c1-3	728 nM	6.8 nM	–	–
CN1CCc2cc(N)cc3c2[C@H]1Cc1ccc(O)c(O)c1-3	3300 nM	–	20 nM	–
CN1CCc2cc(F)cc3c2[C@H]1Cc1ccc(O)c(O)c1-3 [(R)-2-Fluoro-6-methyl-5,6,6a,7-tetrahydro-4H-dibenzo[de,g]quinoline-10,11-diol]	–	94 nM	–	0.43 nM
